Measurements published in paper PMC9229949 (Pharmaceutics, 2022).

Assays:
[1] = Cytotoxicity against J774 cells (CellTiter-Glo); type: cell-based, murine; conditions: mouse, J774 macrophage cells; J774 macrophages, 72 h, CellTiterGlo; at least two experiments; read-out: CC50 ± S.E.M.
Description: In vitro cytotoxicity was assayed against two mammalian cell lineages, J774 (murine macrophages) and HepG2 (human hepatocellular carcinoma). […] Cell cultures from 60 to 80% confluence were trypsinized, washed in complete medium, and 4 × 10^4 cells were plated in 100 µL per well with complete medium in 96-well flat-bottom white plates for 24 h at 37 °C prior to the addition of the compounds. Triplicate aliquots of compound and the reference drugs (stock solution in DMSO) covering 7 different concentrations at 2-fold dilutions were added to the wells, and plates were incubated for 72 h more. After incubation for 72 h at 37 °C, plates were maintained at room temperature, the culture medium was removed, and 100 µL volume of CellTiter-Glo reagent was added to each well. The bioluminescence was measured using a microplate reader Filtermax F5 Multi-Mode instrument (Molecular Devices) and Softmax software. […] The selectivity index (S.I.) was estimated using the IC50s from mammalian cells divided by the IC50 obtained against the asexual blood stage P. falciparum.

[2] = tested on: β-hematin formation from Fe(III)PPIX (hematin); assay: β-hematin inhibition activity, oxidizing conditions (O-BHIA, hematin); type: biochemical; conditions: 18 h incubation; median ± S.E.M. of three experiments; free bases; read-out: β-Hematin Inhibitory Activity (BHIA) O-BHIA (Hematin), IC50
Description: (§1) A hemin chloride (10 μL of 4 mM stock in 80% DMSO) aliquot was dispensed in a U bottom 96-well microplate, and then, 10 μL of 0.1 M NaOH (O-BHIA) or 4 mM reduced glutathione in PBS at pH 7.0 (R-BHIA) was added, and plates were sealed and incubated at 37 °C for 2 h. After this, 10 μL of the drug dissolved in DMSO was added and incubated for 2 h, followed by the addition of 180 μL of sodium acetate buffer (1.0 M, pH 5.2) and 10 μL of nonionic detergent IGEPAL-CA-630 solution in methanol (10 mg/mL). Plates were sealed and incubated at 37 °C for 18 h. […] The reaction was stopped by the addition of 50 μL of a sodium dodecyl sulfate solution (5.0% v/v in 0.1 M bicarbonate buffer at pH 9.0). Plates were centrifuged at 3700 rpm for 5 min, and 100 μL of supernatant was placed in a separate plate. […] Two independent experiments were performed, and each drug concentration was tested in quadruplicate concentrations.

[3] = tested on: β-hematin formation from Fe(II)PPIX (heme); assay: β-hematin inhibition activity, reducing conditions (R-BHIA, heme); type: biochemical; conditions: 18 h incubation; median ± S.E.M. of three experiments; free bases; read-out: β-Hematin Inhibitory Activity (BHIA) R-BHIA (Heme), IC50
Description: as §1

CCN(CC)Cc1cc(Nc2ccnc3cc(Cl)ccc23)ccc1O [Amodiaquine (AQ), amodiaquine]
CC50 at 72 h [1]: 23.8 µM
IC50 [2]: 140 ± 30 µM
IC50 [3]: 100 ± 10 µM
